According to paper PMC6520918, “Antiproliferative Effects of Hop-derived Prenylflavonoids and Their Influence on the Efficacy of Oxaliplatine, 5-fluorouracil and Irinotecan in Human ColorectalC Cells” (Nutrients, 2019):

Key:
SW620 cells [1] = assay: Neutral red uptake (NRU) cell viability assay, 72 h; assay type: cell-based, human
Source text: (§1) The prenylflavonoids and NAR were pre-dissolved in DMSO, while 5-FU, IRT and OxPt were pre-dissolved in distilled water. […] During screening for antiproliferative effects, SW480, SW620, and CaCo-2 were exposed to various concentrations of individual compounds in culture medium: XH, IXH, 6-PN and 8-PN (1–100 μmol/L), NAR (1–200 µmol/L), 5-FU and IRT (0.1–100 µmol/L), and OxPt (0.1–25 µmol/L). The cells cultured in medium with 0.1% DMSO or 0.2% DMSO (for 8-PN only) were used as untreated control samples. In the case of OxPt, the untreated control sample contained cells cultured in medium only. The cells treated with 10% DMSO served as a positive control. Neutral red uptake (NRU) assay was used to determine the number of viable cells after 72 h of exposition. The effect of prenylflavonoids and NAR on 5-FU, IRT or OxPt efficacy was evaluated using CalcuSyn (ver. 1.1) software.
(§2) In the NRU assay, the cells were cultured in 96-well plates (SW480 and SW620: 2500 cells/well; CaCo-2 cells: 200 cells/well) and exposed to the tested compounds for 72 h. Thereafter, the medium was removed and 100 μL of neutral red-containing medium was added into each well and the plates were incubated at 37 °C for an additional 3 h. Then the cells were washed with 100 μL of PBS and fixed in a solution of 0.5% formaldehyde/1% calcium chloride for 15 minutes. The neutral red dye was extracted from the viable cells with a solvent (50% ethanol/1% acetic acid) by shaking for 30 min at room temperature. The absorbance of solubilized dye was measured using the spectrophotometer Infinite M200 (Tecan, Männedorf, Switzerland) at 540 nm. Each sample was assayed in six parallels and three independent experiments were performed. The viabilities of treated cells were expressed as a percentage of untreated controls (100%).
(§3) All calculations were done using Microsoft Excel and GraphPad Prism 7.03 (GraphPad Software, La Jolla, CA, USA). All values were expressed as mean ± S.D. of a given number of experiments. Statistical significance (evaluated using a one-way ANOVA with Dunett’s test) was acceptable to a level of p < 0.05. The concentration inducing a 50% decrease of cell viability as compared to control (IC50) was calculated using GraphPad Prism 7.03—nonlinear regression.

SW480 cells = assay: as above; assay type: cell-based, human; conditions: SW480, 72 h of exposition
Source text: as §1, §2, §3

[2] = system: proliferating CaCo-2 cells; assay: as above; assay type: cell-based; conditions: Homo sapiens, CaCo-2 proliferating, 72 h of exposition
Method: (§4) The CaCo-2 cell line was cultured in EMEM medium supplemented with 10% heat-inactivated FBS, 1% non-essential amino acids, 1% glutamine, and 0.5% penicillin/streptomycin. The cells were grown in 96-well plates for 3 (proliferating cells) and 21 (differentiated cells) days in a humidified atmosphere containing 5% CO2 at 37 °C and subcultured every 3 days.
as §1, §2, §3

[3] = system: differentiated CaCo-2 cells; assay: as above; assay type: cell-based; conditions: Homo sapiens, CaCo-2 differentiated, 72 h of exposition
Method: as §4, §1, §2, §3

SW620 cells [4] = assay: Cellular ROS formation (H2DCF-DA oxidation); assay type: cell-based, human; conditions: for ROS production vs control: SW620, compound alone at its IC50, 0.5-24 h incubation
Method: To assess ROS generation in SW620 cells, a measurement of 2′,7′-dichlorodihydrofluorescein-diacetate (H2DCF-DA) oxidation was used. Cells (seeded in a 96-well plate at a density of 2500 cells/well) were washed with PBS buffer and incubated with 100 μL of 5 μM H2DCF-DA in Hank’s balanced salt solution (HBSS). […] Finally, fluorescence intensity was measured at the excitation and emission wavelengths of 485 nm/525 nm for 50 min at 37 °C using the microplate reader Infinite M200 (Tecan, Männedorf, Switzerland). The cells incubated in HBSS with DMSO only (as a solvent) were used as untreated control samples, while those incubated in the presence of 3% H2O2 were used as a positive control.
As is generally accepted, cancer cells generate more ROS than do normal cells and at the same time, they are sensitive to the effect of agents which augment oxidative stress and thus push these stressed cells beyond their limit. Therefore, the pro-oxidative effect of prenylflavonoids and NAR was tested in the SW620 cells in order to elucidate the observed antiproliferative effects of these compounds. […] ROS production was measured in the SW620 cells incubated with prenylflavonoids or NAR at a concentration equal to their IC50 using a DCFH-DA assay. ROS production was monitored during 24-hour incubation at several time points (0.5, 1, 4, 8, and 24 h).
(§5) Further, we decided to determine the influence of combinations of the studied flavonoids with cytostatics on ROS formation and the activity of caspases in SW620 cells. Combination effects of flavonoids and cytostatics were investigated at equipotent concentrations of the IC50 values for each compound. ROS production was monitored using a DCFH-DA assay at several time points (0.5, 1, 4, 8, and 24 h) during a 24-hour incubation. The activities of caspases-8, -9, and -3/7 were assessed using a luminescence assay kit at 4, 8, and 24 h of incubation.

caspase-8 in SW620 cells = assay: Caspase-Glo assay, initiator caspase-8 activity; assay type: cell-based, human
Method: (§6) The activities of initiator caspases-8 and -9 and effector caspases-3/7 were assayed using Caspase-Glo Assays (Promega, Madison, USA). The SW620 cells (seeded in a […]) were cultivated in 12-well plates. […] The untreated control cells were incubated in medium containing only 0.1% DMSO. The lysates were collected into microtubes. Caspase-8, Caspase-9 and Caspases-3/7 reagents were prepared according to the manufacturer’s instructions. The lysates (25 μL in each well) were transferred into a white-walled 384-well-plate for the luminometer, at which point 25 μL of Caspase-8 or Caspase-9 or Caspases-3/7 reagents were added to each well. The plate was gently mixed for 30 seconds and then incubated for 30 minutes at room temperature. The luminescence was measured using the luminometer Infinite M200 (Tecan, Männedorf, Switzerland).
(§7) In order to determine whether the observed antiproliferative activity of the prenylflavonoids and naringenin could be explained at least in part by the induction of apoptosis, the activities of initiator (caspase-8 and caspase-9) as well as effector caspases (caspases-3/7) were assessed in the SW620 cells, which were exposed to the studied compounds for 4, 8, and 24 h, with the activities of the caspases measured using a luminescence assay.
as §5

caspase-9 in SW620 cells = assay: Caspase-Glo assay, initiator caspase-9 activity; assay type: cell-based, human
Method: as §6, §7, §5

[5] = system: caspases-3/7 in SW620 cells; assay: Caspase-Glo assay, effector caspases-3/7 activity; assay type: cell-based, human; conditions: for Caspase-3/7 activity, combination with 5-FU / Caspase-3/7 activity, combination with OxPt / Caspase-3/7 activity, combination with IRT: SW620, 24-hour incubation, compared to cytostatic alone; for Induction of caspases-3/7 activity: SW620, compound at IC50, 24-h exposure
Method: as §6, §7, §5

[6] = system: colorectal cancer cell lines SW480, SW620 and CaCo-2; assay: Antiproliferative effect (NRU assay) across colorectal cancer cell lines; assay type: cell-based; conditions: Homo sapiens; proliferating colon cancer cells (SW480, SW620, CaCo-2), 72 h; read-out: IC50 range over cell lines
Source text: as §1, with “Neutral red uptake (NRU) assay was used to determine the number of viable cells after 72 h of exposition.” left out
In the NRU assay, the cells were cultured in 96-well plates (SW480 and SW620: 2500 cells/well; CaCo-2 cells: 200 cells/well) and exposed to the tested compounds for 72 h. […] The absorbance of solubilized dye was measured using the spectrophotometer Infinite M200 (Tecan, Männedorf, Switzerland) at 540 nm. […] The viabilities of treated cells were expressed as a percentage of untreated controls (100%).
All calculations were done using Microsoft Excel and GraphPad Prism 7.03 (GraphPad Software, La Jolla, CA, USA). All values were expressed as mean ± S.D. of a given number of experiments. […]

[7] = Homo sapiens, SW-620, SW620, 72 h of exposition
[8] = SW620, 4-h incubation, compared to cytostatic alone
[9] = SW620, 4-hour incubation, compared to cytostatic alone
[10] = SW620, combination with 5-FU, OxPt or IRT

SMILES | IC50 (SW620 cells [1]; [7]) | IC50 (SW480 cells; Homo sapiens) | IC50 [2] | IC50 [3] | ROS production vs control (SW620 cells [4]) | Caspase-3/7 activity, combination with 5-FU [5] | further results
O=c1[nH]cc(F)c(=O)[nH]1 [5-FU, 5-fluorouracil] | 34.9 µM | 22.6 µM |  |  |  |  | 
CC(C)=CCc1c(O)cc2c(c1O)C(=O)C[C@@H](c1ccc(O)cc1)O2 [6-PN, 6-prenylnaringenin] | 13.7 µM | 14.8 µM | 24 µM | 61.9 µM | initially elevated ROS levels in cells and then surprisingly displayed a strong antioxidant effect at the later intervals |  | 
CC(C)=CCc1c(O)cc(O)c2c1O[C@H](c1ccc(O)cc1)CC2=O [8-PN, 8-prenylnaringenin] | 24.9 µM | 56.3 µM | 48.9 µM | > 100 µM | initially elevated ROS levels in cells and then surprisingly displayed a strong antioxidant effect at the later intervals | marked increase | Caspase-8 activity, combination with IRT (caspase-8 in SW620 cells; [8]): significantly increased; Caspase-8 activity, combination with OxPt (caspase-8 in SW620 cells; [8]): significantly increased; Caspase-9 activity, combination with IRT (caspase-9 in SW620 cells; [9]): more potent than the respective cytostatics alone; Caspase-9 activity, combination with OxPt (caspase-9 in SW620 cells; [9]): more potent than the respective cytostatics alone; Caspase-3/7 activity, combination with OxPt [5]: marked increase; Induction of caspases-3/7 activity ([5]; vs untreated control): 44.7%
CCc1c2c(nc3ccc(OC(=O)N4CCC(N5CCCCC5)CC4)cc13)-c1cc3c(c(=O)n1C2)COC(=O)[C@]3(O)CC [IRT, irinotecan] | 25.4 µM | 1.7 µM |  |  |  |  | 
COc1cc(O)c(CC=C(C)C)c2c1C(=O)CC(c1ccc(O)cc1)O2 (centres unmarked) [IXH, isoxanthohumol] | 43.7 µM | 40.4 µM | 47 µM | > 100 µM | strong pro-oxidative effect within the entire 24-hour incubation | marked increase | Caspase-8 activity, combination with 5-FU (caspase-8 in SW620 cells; [8]): significantly increased; Caspase-8 activity, combination with OxPt (caspase-8 in SW620 cells; [8]): significantly increased; Caspase-9 activity, combination with 5-FU (caspase-9 in SW620 cells; [9]): more potent than the respective cytostatics alone; Caspase-3/7 activity, combination with IRT [5]: marked increase; Caspase-3/7 activity, combination with OxPt [5]: marked increase; Induction of caspases-3/7 activity ([5]; vs untreated control): 50.5%
O=C1C[C@@H](c2ccc(O)cc2)Oc2cc(O)cc(O)c21 [NAR, naringenin, reference compound] | > 200 µM | > 200 µM |  |  | only a mild pro-oxidative effect |  | Caspase-8 activity, combined with all the cytostatics (caspase-8 in SW620 cells; [10]): marked induction; Decrease in caspase-9 activity (caspase-9 in SW620 cells; SW620, 4 h of exposure, vs untreated control): 19.7%; Caspase-9 activity, combined with all the cytostatics (caspase-9 in SW620 cells; [10]): marked induction; ROS formation, combination with OxPt (SW620 cells [4]; SW620, flavonoid + OxPt at IC50 concentrations, all time points, vs control and flavonoid alone): feeble yet significant (p < 0.05) increase in ROS formation; ROS formation, combination with IRI (SW620 cells [4]; SW620, flavonoid + irinotecan at IC50 concentrations, all time points, vs control and flavonoid alone): feeble yet significant (p < 0.05) increase in ROS formation; Suppression of effector caspases (3/7) activity, combined with all the cytostatics ([5]; SW620, combination with 5-FU, OxPt or IRT, all time intervals): up to 61.4%; Inhibition of caspases-3/7 ([5]; SW620, compound alone, 4, 8 and 24 h, vs untreated control): up to 52.7%
O=C1[O][Pt]2([NH][C@@H]3CCCC[C@H]3[NH]2)[O]C1=O [OxPt, oxaliplatin] |  |  |  |  |  |  | IC50 (SW620 cells [1]; SW620, 72 h of exposition): 1.9 µM; IC50 (SW480 cells): 1.1 µM
COc1cc(O)c(CC=C(C)C)c(O)c1C(=O)/C=C/c1ccc(O)cc1 [XH, Xanthohumol] | 7.3 µM | 3.6 µM | 6.2 µM | 39.3 µM | strong pro-oxidative effect within the entire 24-hour incubation | marked increase | IC50 [6]: 3.6 to 7.3 µM; Caspase-3/7 activity, combination with IRT [5]: marked increase
